Results published in the supplement of paper PMC8960247.
Structures can show the parent of a compound that is named as a salt. ± gives the standard error.

Tests used:
621-103 (TSC2-rescued) = test: relative viability vs DMSO; higher = less cytotoxic; conditions: serum: 10% FBS, 72 h
621-102 (TSC2-deficient) = test: as above; conditions: serum: 10% FBS, 72 h
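Further: immortalized renal angiomyolipoma cells stably carrying empty vector or TSC2, dosed in 384-well plates in DMEM, viability normalized to vehicle-treated wells within each plate.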

Row | SMILES | relative viability (621-103 (TSC2-rescued); 0.0001 µM) | relative viability (621-103 (TSC2-rescued); 0.001 µM) | relative viability (621-103 (TSC2-rescued); 0.01 µM) | relative viability (621-103 (TSC2-rescued); 0.1 µM) | relative viability (621-103 (TSC2-rescued); 1 µM) | relative viability (621-103 (TSC2-rescued); 10 µM) | relative viability (621-102 (TSC2-deficient); 0.0001 µM) | relative viability (621-102 (TSC2-deficient); 0.001 µM) | relative viability (621-102 (TSC2-deficient); 0.01 µM) | relative viability (621-102 (TSC2-deficient); 0.1 µM) | relative viability (621-102 (TSC2-deficient); 1 µM) | relative viability (621-102 (TSC2-deficient); 10 µM)
1 | COc1ccc(C(CN(C)C)C2(O)CCCCC2)cc1 (centres undefined) [Venlafaxine HCl] | 85.8 ± 1.9% | 109.5 ± 0.37% | 101 ± 4.2% | 99.6 ± 1.8% | 96.1 ± 5% | 90.61 ± 0.47% | 74.8 ± 0.85% | 101 ± 2.7% | 96.3 ± 9.2% | 107 ± 5.2% | 91.33 ± 0.33% | 91.6 ± 2.6%
2 | COC[C@@H](c1ccc(C(F)(F)F)cc1)N1CCN(C2(C)CCN(C(=O)c3c(C)ncnc3C)CC2)C[C@@H]1C [Vicriviroc Malate] | 102 ± 3.4% | 99.95 ± 0.79% | 101 ± 2.1% | 99.04 ± 0.74% | 96.3 ± 1.4% | 97.62 ± 0.55% | 100.4 ± 0.12% | 106 ± 2.8% | 113 ± 2.9% | 108 ± 3.2% | 100 ± 1.5% | 100.24 ± 0.061%
3 | CC[C@]1(O)C[C@H]2CN(CCc3c([nH]c4ccccc34)[C@@](C(=O)OC)(c3cc4c(cc3OC)N(C=O)[C@H]3[C@@](O)(C(=O)OC)[C@H](OC(C)=O)[C@]5(CC)C=CCN6CC[C@]43[C@@H]65)C2)C1 [Vincristine Sulfate] | 48.3 ± 0.14% | 38 ± 0.93% | 33.5 ± 0.55% | 30.4 ± 0.59% | 27.1 ± 1.3% | 21.9 ± 0.84% | 42 ± 1.8% | 37.1 ± 4.2% | 41.7 ± 0.87% | 38.6 ± 0.59% | 37 ± 0.55% | 33.5 ± 1.3%
4 | CC[C@]12C=CCN3CC[C@@]4(c5cc([C@@]6(C(=O)OC)C[C@@H]7C[C@@H](C(C)(F)F)CN(Cc8c6[nH]c6ccccc86)C7)c(OC)cc5N(C)[C@H]4[C@@](O)(C(=O)OC)[C@@H]1OC(C)=O)[C@@H]32 [Vinflunine Tartrate] | 99.3 ± 1.7% | 93 ± 2.6% | 66.9 ± 1.8% | 34.9 ± 1.6% | 29.8 ± 0.55% | 23.6 ± 0.65% | 91.28 ± 0.35% | 96.3 ± 1.4% | 64.68 ± 0.39% | 44.8 ± 3.1% | 32 ± 1.2% | 28.9 ± 0.74%
5 | CCC1=C[C@@H]2CN(C1)Cc1c([nH]c3ccccc13)[C@@](C(=O)OC)(c1cc3c(cc1OC)N(C)[C@H]1[C@@](O)(C(=O)OC)[C@H](OC(C)=O)[C@]4(CC)C=CCN5CC[C@@]31[C@H]54)C2 [Vinorelbine(Navelbine)] | 50.3 ± 2.2% | 37.9 ± 1.1% | 39 ± 0.6% | 31.2 ± 0.92% | 29.86 ± 0.072% | 24.6 ± 0.88% | 51.2 ± 1.2% | 41.4 ± 1.7% | 44.2 ± 2.1% | 38.08 ± 0.27% | 36.28 ± 0.14% | 27.51 ± 0.032%
6 | O=C(CCCCCCC(=O)Nc1ccccc1)NO [Vorinostat] | 101 ± 2.2% | 98.74 ± 0.07% | 98.14 ± 0.97% | 97.94 ± 0.86% | 97.19 ± 0.86% | 26.6 ± 0.47% | 117 ± 3.2% | 120 ± 2.4% | 114 ± 2.5% | 106 ± 1.3% | 91.54 ± 0.85% | 63.7 ± 1.4%
7 | COC(=O)Nc1ccc(-c2nc(N3CCOCC3)c3cnn(C4CCN(C(=O)OC)CC4)c3n2)cc1 [WYE-354] | 102 ± 1.1% | 103.2 ± 0.11% | 102 ± 1.2% | 105.7 ± 1% | 68.1 ± 0.21% | 74.5 ± 2.2% | 89.9 ± 1.9% | 84.2 ± 1.1% | 79.5 ± 4.5% | 84.3 ± 5.7% | 49.3 ± 3.1% | 61.2 ± 3.3%
8 | COC(=O)Nc1ccc(-c2nc(N3CCOCC3)c3cnn(C4CCN(Cc5cccnc5)CC4)c3n2)cc1 [WYE-687] | 113 ± 3.9% | 115.4 ± 1.1% | 113 ± 1.5% | 104 ± 2.3% | 55.5 ± 0.9% | 23.1 ± 0.089% | 97.311 ± 0.046% | 102 ± 3% | 99.7 ± 1.4% | 100 ± 2.7% | 59.1 ± 2.8% | 16.2 ± 0.8%
9 | C=CC(=O)Nc1cccc(Oc2nc(Nc3ccc(N4CCN(C)CC4)cc3)ncc2Cl)c1 [WZ3146] | 103 ± 2% | 100.6 ± 0.42% | 100 ± 1.1% | 101 ± 1.8% | 79.4 ± 1.4% | 12.9 ± 0.067% | 112 ± 3.9% | 110 ± 3.5% | 106 ± 2.6% | 107 ± 3.3% | 97 ± 2.9% | 23.8 ± 5.1%
10 | C=CC(=O)Nc1cccc(Oc2nc(Nc3ccc(N4CCN(C)CC4)cc3OC)ncc2Cl)c1 [WZ4002] | 100.2 ± 0.22% | 101 ± 1.6% | 100.1 ± 0.83% | 101.6 ± 0.99% | 101 ± 2.2% | 32.5 ± 1.5% | 110 ± 1.7% | 100 ± 6.1% | 104 ± 4.2% | 101 ± 3.6% | 99 ± 2% | 51.6 ± 2%
11 | C=CC(=O)Nc1cccc(Sc2nc(Nc3ccc(N4CCN(C)CC4)cc3)ncc2Cl)c1 [WZ8040] | 100 ± 1.2% | 100 ± 1.6% | 99.8 ± 1.3% | 100 ± 1.5% | 100.6 ± 0.89% | 14.9 ± 0.36% | 98.7 ± 3.8% | 97.6 ± 2.1% | 99.3 ± 3.3% | 95.9 ± 1.6% | 98 ± 3.3% | 17.7 ± 4.6%
12 | Oc1nc(-c2ccc(C(F)(F)F)cc2)nc2c1CSCC2 [XAV-939] | 99.56 ± 0.24% | 104 ± 2.7% | 102 ± 2.3% | 102 ± 2% | 102 ± 1.7% | 102 ± 1.7% | 116 ± 0.67% | 112 ± 2.7% | 116 ± 5.5% | 120 ± 1.9% | 119.9 ± 0.91% | 102.42 ± 0.045%
13 | COc1cc2nccc(Oc3ccc(NC(=O)C4(C(=O)Nc5ccc(F)cc5)CC4)cc3)c2cc1OC [XL184] | 97.27 ± 0.56% | 98.1 ± 1.1% | 96.6 ± 1.1% | 98.8 ± 2.2% | 98.7 ± 1.5% | 81.9 ± 4.7% | 110.1 ± 0.14% | 97.1 ± 3.1% | 98.8 ± 3.1% | 107 ± 1.7% | 107 ± 2% | 99.4 ± 0.21%
14 | COC(=O)[C@@H]1[C@H]2C[C@H]3c4[nH]c5ccccc5c4CCN3C[C@@H]2CC[C@@H]1O [Yohimbine HCl] | 104 ± 3.8% | 105 ± 3.1% | 105 ± 3.5% | 97 ± 3% | 99.4 ± 4.7% | 96.5 ± 3.8% | 106 ± 2.6% | 104 ± 1.2% | 104 ± 2.2% | 100.9 ± 0.15% | 100 ± 5.2% | 100 ± 2.6%
15 | FC(F)c1nc2ccccc2n1-c1nc(N2CCOCC2)nc(N2CCOCC2)n1 [ZSTK474] | 101 ± 2.4% | 97 ± 3.6% | 103.8 ± 0.79% | 105.3 ± 0.49% | 96.3 ± 2.2% | 49.6 ± 1.3% | 88.8 ± 4.7% | 94.9 ± 1.6% | 89.77 ± 0.68% | 95.7 ± 2% | 91.2 ± 3.4% | 52.1 ± 1.8%
16 | Nc1ccn([C@H]2CC[C@@H](CO)O2)c(=O)n1 [Zalcitabine] | 90.4 ± 5.7% | 95.48 ± 0.79% | 105 ± 1.1% | 105 ± 4.4% | 100.4 ± 0.83% | 102 ± 1.8% | 92.2 ± 0.98% | 99.9 ± 1.3% | 94.1 ± 2.3% | 103.3 ± 0.81% | 102 ± 3.1% | 93.26 ± 0.69%
17 | COc1nc(C)cnc1NS(=O)(=O)c1cccnc1-c1ccc(-c2nnco2)cc1 [Zibotentan (ZD4054)] | 103.31 ± 0.00057% | 99.8 ± 1.5% | 100.2 ± 0.14% | 100.5 ± 0.75% | 101 ± 1% | 102.5 ± 0.2% | 118 ± 2.6% | 100 ± 3.1% | 109.9 ± 0.58% | 114 ± 2.4% | 105 ± 3.6% | 120 ± 1.6%
